Test results taken from US20250250230A1, “HETEROCYCLIC COMPOUND” (TAKEDA PHARMACEUTICAL COMPANY LIMITED, priority 2022, published 2025).

Molecular target: T1, human orexin type 2 receptor (Homo sapiens, UniProt O43614)
T1 construct: expressed in transfected cells
T1 sequence (O43614 1-444): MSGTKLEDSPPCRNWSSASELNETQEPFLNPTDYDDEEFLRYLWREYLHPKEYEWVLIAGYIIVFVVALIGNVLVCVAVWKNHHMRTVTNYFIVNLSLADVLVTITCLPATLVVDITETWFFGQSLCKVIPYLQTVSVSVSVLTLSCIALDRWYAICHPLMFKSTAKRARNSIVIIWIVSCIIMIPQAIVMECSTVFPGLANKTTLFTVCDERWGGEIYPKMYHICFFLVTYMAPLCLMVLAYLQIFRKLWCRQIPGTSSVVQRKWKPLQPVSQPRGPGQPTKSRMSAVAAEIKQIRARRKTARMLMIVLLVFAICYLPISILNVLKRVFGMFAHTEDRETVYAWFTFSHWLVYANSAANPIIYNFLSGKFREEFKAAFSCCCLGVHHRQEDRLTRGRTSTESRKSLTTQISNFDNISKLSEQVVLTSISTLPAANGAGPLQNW
Assay: Measurement of orexin type 2 receptor agonist activity (calcium fluorescence, Fluo-4 AM, FDSS)
Assay type: cell-based
Settings: test compound 3 μM; CHO cells expressing human OX2 receptor; DMSO = 0%, orexin A (human) = 100%
Summary of the method: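 Agonist response scaled between vehicle (0%) and human orexin A at 10 nM final (100%), from 2-min kinetic Fluo-4 fluorescence reads. Stable hOX2R CHO-K1 clone, dye-loaded in HBSS/20 mM HEPES/0.1% BSA with 1.25 mM probenecid before compound addition.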

Structure (SMILES)	OX2R agonist activity (3 μM, %) [%]
CS(=O)(=O)NC1CN(C(=O)C2CC2c2ccccc2-c2c(F)cccc2F)CC1(F)F (racemic) [Example 130, a mixture of rac-N-{(3R)-1-[(1R,2R)-2-(2′,6′-difluoro[1,1′-biphenyl]-2-yl)cyclopropane-1-carbonyl]-4,4-difluoropyrrolidin-3-yl}methanesulfonamide and rac-N-{(3S)-1-[(1R,2R)-2-(2′,6′-difluoro[1,1′-biphenyl]-2-yl)cyclopropane-1-carbonyl]-4,4-difluoropyrrolidin-3-yl}methanesulfonamide]	87
CS(=O)(=O)NC1CCN(C(=O)C2CC2c2ccc(F)cc2-c2ccccc2Cl)C1 (racemic) [Example 134, a mixture of rac-N-{(3R)-1-[(1R,2R)-2-(2′-chloro-5-fluoro[1,1′-biphenyl]-2-yl)cyclopropane-1-carbonyl]pyrrolidin-3-yl}methanesulfonamide and rac-N-{(3S)-1-[(1R,2R)-2-(2′-chloro-5-fluoro[1,1′-biphenyl]-2-yl)cyclopropane-1-carbonyl]pyrrolidin-3-yl}methanesulfonamide]	74
CS(=O)(=O)NC1CCN(C(=O)C2CC2c2ccc(F)cc2-c2c(F)cccc2F)C1 (racemic) [Example 135, a mixture of rac-N-{(3R)-1-[(1R,2R)-2-(2′,5,6′-trifluoro[1,1′-biphenyl]-2-yl)cyclopropane-1-carbonyl]pyrrolidin-3-yl}methanesulfonamide and rac-N-{(3S)-1-[(1R,2R)-2-(2′,5,6′-trifluoro[1,1′-biphenyl]-2-yl)cyclopropane-1-carbonyl]pyrrolidin-3-yl}methanesulfonamide]	111
Cc1ccc(C2CC2C(=O)N2CCC(NS(C)(=O)=O)C2)c(-c2c(F)cccc2F)c1 (racemic) [Example 136, a mixture of rac-N-{(3R)-1-[(1R,2R)-2-(2′,6′-difluoro-5-methyl[1,1′-biphenyl]-2-yl)cyclopropane-1-carbonyl]pyrrolidin-3-yl}methanesulfonamide and rac-N-{(3S)-1-[(1R,2R)-2-(2′,6′-difluoro-5-methyl[1,1′-biphenyl]-2-yl)cyclopropane-1-carbonyl]pyrrolidin-3-yl}methanesulfonamide]	110
CS(=O)(=O)NC1CN(C(=O)C2CC2c2ccccc2-c2c(F)cccc2F)CC1F (racemic) [Example 137, a mixture of rac-N-{(3S,4R)-1-[(1R,2R)-2-(2′,6′-difluoro[1,1′-biphenyl]-2-yl)cyclopropane-1-carbonyl]-4-fluoropyrrolidin-3-yl}methanesulfonamide and rac-N-{(3R,4S)-1-[(1R,2R)-2-(2′,6′-difluoro[1,1′-biphenyl]-2-yl)cyclopropane-1-carbonyl]-4-fluoropyrrolidin-3-yl}methanesulfonamide]	59
Cc1ccc(C2CC2C(=O)N2CCC(NS(C)(=O)=O)C2)c(-c2ccccc2Cl)c1 (racemic) [Example 145, a mixture of rac-N-{(3R)-1-[(1R,2R)-2-(2′-chloro-5-methyl[1,1′-biphenyl]-2-yl)cyclopropane-1-carbonyl]pyrrolidin-3-yl}methanesulfonamide and rac-N-{(3S)-1-[(1R,2R)-2-(2′-chloro-5-methyl[1,1-biphenyl]-2-yl)cyclopropane-1-carbonyl]pyrrolidin-3-yl}methanesulfonamide]	94
CS(=O)(=O)NC1CCCN(C(=O)C2CC2c2ccc(F)cc2-c2c(F)cccc2F)C1 (racemic) [Example 152, a mixture of rac-N-{(3R)-1-[(1R,2R)-2-(2′,5,6′-trifluoro[1,1′-biphenyl]-2-yl)cyclopropane-1-carbonyl]piperidin-3-yl}methanesulfonamide and rac-N-{(3S)-1-[(1R,2R)-2-(2′,5,6′-trifluoro[1,1′-biphenyl]-2-yl)cyclopropane-1-carbonyl]piperidin-3-yl}methanesulfonamide]	95
CS(=O)(=O)NC1CCCN(C(=O)C2CC2c2ccc(F)cc2-c2c(F)cccc2F)CC1 (racemic) [Example 153, a mixture of rac-N-{(4R)-1-[(1R,2R)-2-(2′,5,6′-trifluoro[1,1′-biphenyl]-2-yl)cyclopropane-1-carbonyl]azepan-4-yl}methanesulfonamide and rac-N-{(4S)-1-[(1R,2R)-2-(2′,5,6′-trifluoro[1,1′-biphenyl]-2-yl)cyclopropane-1-carbonyl]azepan-4-yl}methanesulfonamide]	100
CC1CC(NS(C)(=O)=O)CN(C(=O)C2CC2c2ccccc2-c2c(F)cccc2F)C1 (racemic) [Example 158]	106
CCS(=O)(=O)NC1CCCCN(C(=O)C2CC2c2ccccc2-c2c(F)cccc2F)C1 (racemic) [Example 159, a mixture of rac-N-{(3R)-1-[(1R,2R)-2-(2′,6′-difluoro[1,1′-biphenyl]-2-yl)cyclopropane-1-carbonyl]azepan-3-yl}ethanesulfonamide and rac-N-{(3S)-1-[(1R,2R)-2-(2′,6′-difluoro[1,1′-biphenyl]-2-yl)cyclopropane-1-carbonyl]azepan-3-yl}ethanesulfonamide]	101
O=C(C1CC1c1ccccc1-c1c(F)cccc1F)N1CCCCC(NS(=O)(=O)C2CC2)C1 (racemic) [Example 161, a mixture of rac-N-{(3R)-1-[(1R,2R)-2-(2′,6′-difluoro[1,1′-biphenyl]-2-yl)cyclopropane-1-carbonyl]azepan-3-yl}cyclopropanesulfonamide and rac-N-{(3S)-1-[(1R,2R)-2-(2′,6′-difluoro[1,1′-biphenyl]-2-yl)cyclopropane-1-carbonyl]azepan-3-yl}cyclopropanesulfonamide]	99
CN(C)S(=O)(=O)NC1CCCCN(C(=O)C2CC2c2ccccc2-c2c(F)cccc2F)C1 (racemic) [Example 162, a mixture of rac-N′-{(3R)-1-[(1R,2R)-2-(2′,6′-difluoro[1,1′-biphenyl]-2-yl)cyclopropane-1-carbonyl]azepan-3-yl}-N,N-dimethylsulfuric diamide and rac-N′-{(3S)-1-[(1R,2R)-2-(2′,6′-difluoro[1,1′-biphenyl]-2-yl)cyclopropane-1-carbonyl]azepan-3-yl}-N,N-dimethylsulfuric diamide]	106
CN(C)S(=O)(=O)NC1CCCN(C(=O)C2CC2c2ccccc2-c2c(F)cccc2F)C1 (racemic) [Example 164, a mixture of rac-N′-{(3R)-1-[(1R,2R)-2-(2′,6′-difluoro[1,1′-biphenyl]-2-yl)cyclopropane-1-carbonyl]piperidin-3-yl}-N,N-dimethylsulfuric diamide and rac-N′-{(3S)-1-[(1R,2R)-2-(2′,6′-difluoro[1,1′-biphenyl]-2-yl)cyclopropane-1-carbonyl]piperidin-3-yl}-N,N-dimethylsulfuric diamide]	104
Cc1ccc(C2CC2C(=O)N2CCCC(NS(C)(=O)=O)C2)c(-c2c(F)cccc2F)c1 (racemic) [Example 166, a mixture of rac-N-{(3R)-1-[(1R,2R)-2-(2′,6′-difluoro-5-methyl[1,1′-biphenyl]-2-yl)cyclopropane-1-carbonyl]piperidin-3-yl}methanesulfonamide and rac-N-{(3S)-1-[(1R,2R)-2-(2′,6′-difluoro-5-methyl[1,1′-biphenyl]-2-yl)cyclopropane-1-carbonyl]piperidin-3-yl}methanesulfonamide]	110
Cc1ccc(C2CC2C(=O)N2CCCC(NS(C)(=O)=O)CC2)c(-c2c(F)cccc2F)c1 (racemic) [Example 167, a mixture of rac-N-{(4R)-1-[(1R,2R)-2-(2′,6′-difluoro-5-methyl[1,1′-biphenyl]-2-yl)cyclopropane-1-carbonyl]azepan-4-yl}methanesulfonamide and rac-N-{(4S)-1-[(1R,2R)-2-(2′,6′-difluoro-5-methyl[1,1′-biphenyl]-2-yl)cyclopropane-1-carbonyl]azepan-4-yl}methanesulfonamide]	96
CC1CCN(C(=O)C2CC2c2ccccc2-c2c(F)cccc2F)CC1NS(C)(=O)=O (racemic) [Example 185, a mixture of rac-N-{(3R,4R)-1-[(1R,2R)-2-(2′,6′-difluoro[1,1′-biphenyl]-2-yl)cyclopropane-1-carbonyl]-4-methylpiperidin-3-yl}methanesulfonamide and rac-N-{(3S,4S)-1-[(1R,2R)-2-(2′,6′-difluoro[1,1′-biphenyl]-2-yl)cyclopropane-1-carbonyl]-4-methylpiperidin-3-yl}methanesulfonamide]	57
CC1CCN(C(=O)C2CC2c2ccccc2-c2c(F)cccc2F)CCC1NS(C)(=O)=O (racemic) [Example 186]	101
